Experiments:
[1] = Formulation stability comparison test (suspension in benzyl benzoate and castor oil, 60° C. and 80° C., HPLC); assay type: physicochemical
Protocol: (§1) The HPLC conditions used in the present disclosure were as follows, and the purity of donepezil ether palmitate hydrochloride was measured. • 1) detector: ultraviolet absorption photometer (measurement wavelength: 276 nm) • 2) column: YMC-Pack Pro C18 (4.6×250 mm, 5 μm) • 3) mobile phase A: Solution obtained by dissolving 1.88 g of sodium 1-hexanesulfonate in 1000 mL of purified water, and then adding 1.0 mL of phosphoric acid thereto, wherein each amount of reaction substances was accurately weighed. • 4) mobile phase B: acetonitrile
Experiments were conducted to evaluate the formulation stability over time of donepezil ether palmitate (DEP) and donepezil ether palmitate hydrochloride (DEP HCl).
Specifically, each of DEP and DEP HCl was mixed with benzyl benzoate and castor oil to prepare a suspension, and then stored at 60° C. and 80° C. The chemical stability was analyzed by HPLC (purity and increased amount of related substances), and results thereof are shown in Table 4.

[2] = Raw material accelerated stability comparison test (40° C., RH 75%, light-shielding seal, HPLC); assay type: physicochemical
Protocol: as §1
accelerated stability over time of donepezil ether palmitate (DEP) and donepezil ether palmitate hydrochloride (DEP HCl).
Specifically, in the experiments, each compound was stored in a light-shielding seal under accelerated conditions (40° C., RH 75%), and the chemical stability thereof was analyzed by HPLC (purity and increased amount of related substances).

[3] = Raw material harsh stability comparison test (60° C., HPLC); assay type: physicochemical
Protocol: as §1
Experiments were conducted to evaluate the raw material harsh stability over time of donepezil ether palmitate (DEP) and donepezil ether palmitate hydrochloride (DEP HCl).
Specifically, in the experiments, each compound was stored under a condition of 60° C., and the chemical stability thereof was analyzed by HPLC (purity and increased amount of related substances).

With CCCCCCCCCCCCCCOCC(=O)OC1=C(CC2CCN(Cc3ccccc3)CC2)Cc2cc(OC)c(OC)cc21 [DEP, 2-((1-benzylpiperidin-4-yl)methyl)-5,6-dimethoxy-1H-inden-3-yl 2-(tetradecyloxy)acetate] the Purity ([1]; Day 1 at 80° C.) was 97.96%, the Purity ([1]; Initial) was 99.79% and the Purity ([1]; Week 1 at 60° C.) was 97.54%. The “purity decreased by” value ([2]; 6th month versus initial) was “about 2.47%”, the PT impurity ([2]; Initial) was 0.02% and the Purity ([2]; Initial) was 99.22%. For the same compound, the PT impurity ([2]; Month 1) was 0.04%, the Purity ([2]; Month 1) was 99.05% and the PT impurity ([2]; Month 3) was 0.08%. It also gave a Purity ([2]; Month 3) of 98.65%, a PT impurity ([2]; Month 6) of 0.13% and a Purity ([2]; Month 6) of 96.75%. For the same compound, the “purity decreased by” value ([3]; 2nd week versus initial) was “about 18.60%”, the PT impurity ([3]; Day 1) was 1.61% and the Purity ([3]; Day 1) was 95.44%. For the same compound, the PT impurity ([3]; Day 3) was 3.33%, the Purity ([3]; Day 3) was 92.05% and the Purity ([3]; Initial) was 99.76%. The PT impurity ([3]; Week 2) was 4.39%, the Purity ([3]; Week 2) was 81.16% and the melting point was 55.1 °C.
